{"source": "patent US12600926B2", "about": "“Treatment compositions with modified amino acid dimers for delivering a benefit agent” (The Procter & Gamble Company, priority 2022, dated 2026)", "test": "Stability of the independent neat fluid by 1H NMR", "type": "physicochemical", "conditions": "neat premix fluid, storage", "experimental": "(§1) Synthetic Example 1′ was prepared as described in General Method A, but using 10 g of L-Cystine, 17.0 g of dodecanol, and 17.4 g PTSA·H2O. The isolated fluid of Synthetic Example 1′ was then mixed with cyclamen aldehyde as described in General Method B yielding Synthetic Example 1.\nas §1, with “2′” for “1′”, “5.0” for “10”, “2,6-Diaminoheptanedioic acid, 10.5” for “L-Cystine, 17.0”, “11” for “17.4”, “with 15 wt % ethanol, and” for “with”, “2A.” for “1.”\nSynthetic Example 2′ was prepared as described in General Method A, but using 5.0 g of 2,6-Diaminoheptanedioic acid, 10.8 g of dodecanol, and 11.1 g PTSA H2O. The isolated fluid of Synthetic Example 2′ was then mixed with 15 wt % ethanol, and δ-Damascone, as described in General Method B yielding Synthetic Example 2B.", "data": [{"compound": "CCCCCCCCCCCCOC(=O)C(CCCC(N=CC(C)Cc1ccc(C(C)C)cc1)C(=O)OCCCCCCCCCCCC)N=CC(C)Cc1ccc(C(C)C)cc1", "note": "(centres unmarked) [Synthetic Example 2A]", "values": [{"measurement": "Stability of the independent fluid by 1H NMR", "value": "stable for several months"}]}, {"compound": "CCCCCCCCCCCCOC(=O)C(CCCC(NC(C)CC(=O)C1C(C)C=CCC1(C)C)C(=O)OCCCCCCCCCCCC)NC(C)CC(=O)C1C(C)C=CCC1(C)C", "note": "(centres unmarked) [Synthetic Example 2B]", "values": [{"measurement": "Stability of the independent fluid by 1H NMR", "value": "stable for several months"}]}]}
